Like-named read-outs stand apart in the source and are kept apart here.
Assays:
Assay type in all cases: binding
FGFR4 = molecular target: T1, FGFR4 (Homo sapiens, UniProt P22455); conditions: for remaining binding at 10 µM: read-out: Percent control
T1 construct: purchased DiscoveRx KINOMEscan

TNK1 = molecular target: T2, TNK1 (Homo sapiens, UniProt Q13470); conditions: for Percent control: 10 μM; for remaining binding at 10 µM: read-out: Percent control
T2 construct: purchased DiscoveRx (KINOMEscan service)
T2 sequence (Q13470 1-666): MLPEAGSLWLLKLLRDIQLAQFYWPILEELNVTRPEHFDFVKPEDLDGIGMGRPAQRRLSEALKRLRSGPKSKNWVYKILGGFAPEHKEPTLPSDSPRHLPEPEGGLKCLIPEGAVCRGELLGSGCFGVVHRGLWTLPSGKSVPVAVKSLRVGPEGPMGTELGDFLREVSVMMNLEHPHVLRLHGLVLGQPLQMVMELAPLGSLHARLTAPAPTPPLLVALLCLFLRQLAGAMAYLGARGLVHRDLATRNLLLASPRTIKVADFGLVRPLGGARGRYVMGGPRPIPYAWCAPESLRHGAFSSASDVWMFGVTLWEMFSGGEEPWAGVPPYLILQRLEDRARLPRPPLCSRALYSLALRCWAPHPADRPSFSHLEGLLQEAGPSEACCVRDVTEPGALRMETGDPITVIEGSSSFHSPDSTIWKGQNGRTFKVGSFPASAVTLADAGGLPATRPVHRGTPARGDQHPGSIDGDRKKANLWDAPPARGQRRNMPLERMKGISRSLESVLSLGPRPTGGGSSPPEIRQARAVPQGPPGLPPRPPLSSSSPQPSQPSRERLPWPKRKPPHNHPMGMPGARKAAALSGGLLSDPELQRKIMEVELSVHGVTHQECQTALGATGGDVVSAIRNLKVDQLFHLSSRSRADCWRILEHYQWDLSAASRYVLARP

SRMS = molecular target: T3, SRMS (Homo sapiens, UniProt Q9H3Y6); conditions: for remaining binding at 10 µM: read-out: Percent control
T3 construct: purchased DiscoveRx (KINOMEscan service)

TEC = molecular target: T4, TEC (Homo sapiens, UniProt P42680); conditions: for remaining binding at 10 µM: read-out: Percent control
T4 construct: purchased DiscoveRx (KINOMEscan service)
T4 sequence (P42680 1-631): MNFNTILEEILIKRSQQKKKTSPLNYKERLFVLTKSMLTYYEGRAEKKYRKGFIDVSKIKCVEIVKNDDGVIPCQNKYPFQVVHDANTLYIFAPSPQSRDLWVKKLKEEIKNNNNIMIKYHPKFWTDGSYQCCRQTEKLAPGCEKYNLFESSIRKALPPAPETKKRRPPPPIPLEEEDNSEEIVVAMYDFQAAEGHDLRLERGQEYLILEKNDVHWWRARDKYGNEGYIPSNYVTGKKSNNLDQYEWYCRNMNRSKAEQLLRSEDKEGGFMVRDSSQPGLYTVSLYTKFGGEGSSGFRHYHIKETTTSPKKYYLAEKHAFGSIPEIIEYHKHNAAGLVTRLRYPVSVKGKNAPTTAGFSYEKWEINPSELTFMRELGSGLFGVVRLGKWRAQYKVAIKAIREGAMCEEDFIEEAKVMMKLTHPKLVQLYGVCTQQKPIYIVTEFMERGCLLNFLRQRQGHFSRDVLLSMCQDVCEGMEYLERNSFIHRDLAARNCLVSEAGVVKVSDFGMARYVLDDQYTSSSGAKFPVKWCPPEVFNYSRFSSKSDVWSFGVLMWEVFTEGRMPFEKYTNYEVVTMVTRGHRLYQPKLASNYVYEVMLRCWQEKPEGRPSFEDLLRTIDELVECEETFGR

EPHA7 = molecular target: T5, EPHA7 (Homo sapiens, UniProt Q15375); conditions: for remaining binding at 10 µM: read-out: Percent control
T5 construct: purchased DiscoveRx KINOMEscan

MERTK = molecular target: T6, MERTK (Homo sapiens, UniProt Q12866); conditions: for remaining binding at 10 µM: read-out: Percent control
T6 construct: purchased DiscoveRx KINOMEscan
T6 sequence (Q12866 21-999): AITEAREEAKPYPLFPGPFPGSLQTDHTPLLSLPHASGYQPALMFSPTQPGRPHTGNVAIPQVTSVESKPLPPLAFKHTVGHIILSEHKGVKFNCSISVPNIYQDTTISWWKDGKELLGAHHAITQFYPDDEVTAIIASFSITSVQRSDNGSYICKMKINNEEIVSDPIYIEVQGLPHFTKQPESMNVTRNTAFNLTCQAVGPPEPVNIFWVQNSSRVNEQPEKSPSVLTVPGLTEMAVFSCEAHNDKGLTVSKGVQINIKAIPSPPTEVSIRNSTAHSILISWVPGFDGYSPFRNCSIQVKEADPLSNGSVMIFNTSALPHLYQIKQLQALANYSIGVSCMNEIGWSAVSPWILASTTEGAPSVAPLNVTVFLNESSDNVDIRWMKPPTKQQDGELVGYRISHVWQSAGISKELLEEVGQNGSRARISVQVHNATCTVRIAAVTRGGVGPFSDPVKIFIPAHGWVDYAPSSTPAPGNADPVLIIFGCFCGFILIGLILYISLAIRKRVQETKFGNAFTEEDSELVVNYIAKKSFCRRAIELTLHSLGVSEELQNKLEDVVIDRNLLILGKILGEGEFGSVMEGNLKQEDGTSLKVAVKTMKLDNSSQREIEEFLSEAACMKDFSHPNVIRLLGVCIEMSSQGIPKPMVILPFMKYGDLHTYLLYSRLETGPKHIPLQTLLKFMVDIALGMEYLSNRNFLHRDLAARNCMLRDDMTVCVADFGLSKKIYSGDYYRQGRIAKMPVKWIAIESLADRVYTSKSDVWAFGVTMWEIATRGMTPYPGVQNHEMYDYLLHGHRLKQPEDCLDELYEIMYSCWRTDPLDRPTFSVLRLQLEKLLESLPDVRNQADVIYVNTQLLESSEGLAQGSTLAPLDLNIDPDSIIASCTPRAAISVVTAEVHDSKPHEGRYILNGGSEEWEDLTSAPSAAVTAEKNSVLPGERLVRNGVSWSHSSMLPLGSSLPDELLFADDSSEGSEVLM

INSR = molecular target: T7, INSR (Homo sapiens, UniProt P06213); conditions: for remaining binding at 10 µM: read-out: Percent control
T7 construct: purchased DiscoveRx KINOMEscan
T7 sequence (P06213 28-1382): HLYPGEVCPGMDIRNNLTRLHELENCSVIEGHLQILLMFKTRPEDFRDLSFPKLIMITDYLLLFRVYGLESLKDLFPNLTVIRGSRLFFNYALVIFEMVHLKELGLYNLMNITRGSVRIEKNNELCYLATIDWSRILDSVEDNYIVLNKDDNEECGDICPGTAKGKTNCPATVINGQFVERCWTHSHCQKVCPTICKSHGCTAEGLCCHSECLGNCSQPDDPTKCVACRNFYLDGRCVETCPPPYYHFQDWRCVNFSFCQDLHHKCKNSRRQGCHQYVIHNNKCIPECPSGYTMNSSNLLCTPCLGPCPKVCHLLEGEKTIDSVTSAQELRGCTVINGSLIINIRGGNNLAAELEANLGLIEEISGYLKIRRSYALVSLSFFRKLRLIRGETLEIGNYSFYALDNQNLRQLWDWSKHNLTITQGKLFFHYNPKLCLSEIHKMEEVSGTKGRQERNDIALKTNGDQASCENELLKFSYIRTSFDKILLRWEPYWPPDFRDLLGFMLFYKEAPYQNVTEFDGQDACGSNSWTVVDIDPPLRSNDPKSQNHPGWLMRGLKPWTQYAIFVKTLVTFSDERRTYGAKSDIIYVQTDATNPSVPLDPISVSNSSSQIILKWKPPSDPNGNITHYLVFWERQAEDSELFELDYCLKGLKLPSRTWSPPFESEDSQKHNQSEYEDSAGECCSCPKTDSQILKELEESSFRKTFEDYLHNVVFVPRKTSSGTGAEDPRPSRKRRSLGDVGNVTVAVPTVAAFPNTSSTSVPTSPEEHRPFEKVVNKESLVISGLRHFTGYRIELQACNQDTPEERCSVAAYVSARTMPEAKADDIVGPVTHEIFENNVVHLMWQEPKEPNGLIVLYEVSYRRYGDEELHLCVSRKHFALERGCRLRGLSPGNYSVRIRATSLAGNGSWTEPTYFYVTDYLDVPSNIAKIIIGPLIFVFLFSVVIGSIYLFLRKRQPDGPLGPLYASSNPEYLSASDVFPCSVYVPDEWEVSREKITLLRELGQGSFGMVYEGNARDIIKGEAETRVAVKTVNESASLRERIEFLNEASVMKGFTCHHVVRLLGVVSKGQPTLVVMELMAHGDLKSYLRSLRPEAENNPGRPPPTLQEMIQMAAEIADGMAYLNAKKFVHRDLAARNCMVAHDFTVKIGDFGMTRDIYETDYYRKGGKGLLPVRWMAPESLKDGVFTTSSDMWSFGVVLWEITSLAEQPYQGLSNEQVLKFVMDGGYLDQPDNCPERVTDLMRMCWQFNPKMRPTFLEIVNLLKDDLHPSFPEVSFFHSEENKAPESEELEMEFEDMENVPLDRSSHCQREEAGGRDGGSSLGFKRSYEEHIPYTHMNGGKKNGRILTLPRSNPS

T5 sequence (Q15375 28-998): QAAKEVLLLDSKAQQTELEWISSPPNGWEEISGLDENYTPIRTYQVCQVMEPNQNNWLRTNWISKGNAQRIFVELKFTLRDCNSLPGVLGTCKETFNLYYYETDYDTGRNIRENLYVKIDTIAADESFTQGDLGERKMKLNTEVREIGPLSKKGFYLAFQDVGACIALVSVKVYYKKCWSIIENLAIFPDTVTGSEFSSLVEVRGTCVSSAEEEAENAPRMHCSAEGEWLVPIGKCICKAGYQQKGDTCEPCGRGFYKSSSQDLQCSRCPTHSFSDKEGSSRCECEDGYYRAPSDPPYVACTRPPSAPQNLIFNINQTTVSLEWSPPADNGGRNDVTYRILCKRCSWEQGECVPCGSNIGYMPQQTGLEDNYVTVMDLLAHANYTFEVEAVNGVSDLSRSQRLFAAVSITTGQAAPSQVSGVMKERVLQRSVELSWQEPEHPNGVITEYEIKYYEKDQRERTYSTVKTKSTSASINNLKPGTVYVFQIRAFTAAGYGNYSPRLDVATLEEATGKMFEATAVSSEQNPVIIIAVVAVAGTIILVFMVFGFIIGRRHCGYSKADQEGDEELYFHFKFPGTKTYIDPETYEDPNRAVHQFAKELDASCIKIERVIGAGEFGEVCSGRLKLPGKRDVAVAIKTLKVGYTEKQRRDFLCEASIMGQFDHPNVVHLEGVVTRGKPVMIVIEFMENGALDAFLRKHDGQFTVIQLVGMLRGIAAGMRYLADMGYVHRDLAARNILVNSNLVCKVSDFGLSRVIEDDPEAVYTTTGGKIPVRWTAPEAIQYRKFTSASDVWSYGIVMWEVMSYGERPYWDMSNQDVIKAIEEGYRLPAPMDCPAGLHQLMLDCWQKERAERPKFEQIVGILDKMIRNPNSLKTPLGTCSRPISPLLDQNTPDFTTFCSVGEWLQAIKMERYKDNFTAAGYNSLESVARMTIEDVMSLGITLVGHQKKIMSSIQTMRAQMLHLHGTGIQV
T1 sequence (P22455 22-802): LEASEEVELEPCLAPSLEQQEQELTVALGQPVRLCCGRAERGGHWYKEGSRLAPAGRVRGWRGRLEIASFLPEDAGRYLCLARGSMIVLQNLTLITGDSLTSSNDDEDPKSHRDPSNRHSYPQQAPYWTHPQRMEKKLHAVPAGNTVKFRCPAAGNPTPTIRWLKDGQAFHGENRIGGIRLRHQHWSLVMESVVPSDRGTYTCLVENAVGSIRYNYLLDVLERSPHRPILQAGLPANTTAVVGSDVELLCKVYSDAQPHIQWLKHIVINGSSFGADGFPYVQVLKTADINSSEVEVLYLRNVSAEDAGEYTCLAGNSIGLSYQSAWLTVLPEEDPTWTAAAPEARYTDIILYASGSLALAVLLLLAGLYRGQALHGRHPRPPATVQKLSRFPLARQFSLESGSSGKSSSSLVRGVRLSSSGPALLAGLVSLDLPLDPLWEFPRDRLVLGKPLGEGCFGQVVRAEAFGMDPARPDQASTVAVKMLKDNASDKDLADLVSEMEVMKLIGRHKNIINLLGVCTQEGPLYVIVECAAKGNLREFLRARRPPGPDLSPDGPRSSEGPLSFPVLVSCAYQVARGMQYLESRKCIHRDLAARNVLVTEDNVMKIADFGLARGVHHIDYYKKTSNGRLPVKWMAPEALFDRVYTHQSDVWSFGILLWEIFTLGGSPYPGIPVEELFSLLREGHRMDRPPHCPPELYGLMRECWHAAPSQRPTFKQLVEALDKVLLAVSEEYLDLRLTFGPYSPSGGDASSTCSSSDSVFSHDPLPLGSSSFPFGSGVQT
T3 sequence (Q9H3Y6 whole entry): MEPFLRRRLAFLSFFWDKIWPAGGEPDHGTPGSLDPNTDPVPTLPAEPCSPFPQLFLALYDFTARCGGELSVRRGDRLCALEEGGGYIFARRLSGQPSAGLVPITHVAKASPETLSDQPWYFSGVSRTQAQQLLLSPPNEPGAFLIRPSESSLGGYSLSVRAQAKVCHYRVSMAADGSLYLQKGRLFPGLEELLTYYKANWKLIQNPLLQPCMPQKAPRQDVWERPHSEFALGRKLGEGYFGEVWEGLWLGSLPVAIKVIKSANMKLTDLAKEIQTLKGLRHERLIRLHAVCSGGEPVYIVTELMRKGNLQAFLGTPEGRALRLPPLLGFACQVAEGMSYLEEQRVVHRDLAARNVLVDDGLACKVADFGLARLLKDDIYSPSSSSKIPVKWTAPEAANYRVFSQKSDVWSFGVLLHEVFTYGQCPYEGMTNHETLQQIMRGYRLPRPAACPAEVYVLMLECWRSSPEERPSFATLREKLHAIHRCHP

SMILES | Percent control (FGFR4; FGFR4, 10 μM) [%] | Percent control (TNK1) [%] | Percent control (SRMS; SRMS, 10 μM) [%] | Percent control (TEC; TEC, 10 μM) [%] | Percent control (EPHA7; EPHA7, 10 μM) [%] | Percent control (MERTK; MERTK, 10 μM) [%] | Percent control (INSR; INSR, 10 μM) [%] | remaining binding at 10 µM (FGFR4) [%] | remaining binding at 10 µM (TNK1) [%] | remaining binding at 10 µM (SRMS) [%] | remaining binding at 10 µM (TEC) [%] | remaining binding at 10 µM (EPHA7) [%] | remaining binding at 10 µM (MERTK) [%] | remaining binding at 10 µM (INSR) [%] | remaining binding at 10 µM (FGFR4; FGFR4, 10 μM) [%] | remaining binding at 10 µM (SRMS; SRMS, 10 μM) [%] | remaining binding at 10 µM (TEC; TEC, 10 μM) [%] | remaining binding at 10 µM (EPHA7; EPHA7, 10 μM) [%] | remaining binding at 10 µM (MERTK; MERTK, 10 μM) [%] | remaining binding at 10 µM (INSR; INSR, 10 μM) [%]
Cc1ccc(NC(=O)c2ccc(CN3CCN(C)CC3)cc2)cc1Nc1nccc(-c2cccnc2)[n+]1[Pt-2]1([Cl])[NH2+]C2CCCCC2[NH2+]1 (stereo not drawn) [1b, oxaliplatin-imatinib] | 94 | 90 | 98 | 100 | 100 | 100 | 92 | – | – | – | – | – | – | – | – | – | – | – | – | –
C#Cc1cccc(Nc2c3cc(OCCOC)c(OCCOC)cc3nc[n+]2[Pt@SP2-2]([NH3+])([NH3+])[Cl])c1 [2a, cisplatin-erlotinib] | 99 | 85 | 94 | 72 | 67 | 100 | 85 | – | – | – | – | – | – | – | – | – | – | – | – | –
COc1cc2c(Nc3ccc(Br)cc3F)[n+]([Pt-2]3([Cl])[NH2+]C4CCCCC4[NH2+]3)cnc2cc1OCC1CCN(C)CC1 (stereo not drawn) [3b, oxaliplatin-vandetanib] | 97 | 90 | 95 | 100 | 79 | 17 | 72 | – | – | – | – | – | – | – | – | – | – | – | – | –
C#Cc1cccc(Nc2ncnc3cc(OCCOC)c(OCCOC)cc23)c1 [Erlotinib] | – | – | – | – | – | – | – | 100 | 5.9 | 100 | 100 | 12.3 | 8.9 | 100 | – | – | – | – | – | –
Cc1ccc(NC(=O)c2ccc(CN3CCN(C)CC3)cc2)cc1Nc1nccc(-c2cccnc2)n1 [Imatinib, reference compound] | 100 | 100 | 100 | 100 | 100 | 100 | 100 | – | – | – | – | – | – | – | – | – | – | – | – | –
COc1cc2c(Nc3ccc(Br)cc3F)ncnc2cc1OCC1CCN(C)CC1 [Vandetanib, reference compound] | – | – | – | – | – | – | – | – | 100 | – | – | – | – | – | 18.7 | 16 | 100 | 19.4 | 12.3 | 100
